Read-outs that look alike come from different tables or passages of the source.

Type in all cases: cell-based, human
Test [1] relates to KRAS G12C mutant NCI-H358 cells. Nature of the test: Cell proliferation inhibition experiment, 3D spheroid, CellTiter-Glo, NCI-H358. As to conditions: NCI-H358 (KRAS G12C mutant) 3D spheroid, 5 days with compound, CellTiter-Glo, read-out: H358 IC50. The gist of the method: (§1)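 First, H358 (800/well) or A549 (400/well) cells are plated in 2% FBS medium and left overnight to form spheroids. Next, compound is added as a 3.16-fold gradient at 0.1% DMSO for 5 days. Finally, CellTiter-Glo signal is read and IC50 derived by four-parameter fitting.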

The subject of test [2] is A549 cells (KRAS G12S mutant). Nature of the test: Cell proliferation inhibition experiment, 3D spheroid, CellTiter-Glo, A549. As to conditions: A549 (KRAS G12S mutant) 3D spheroid, 5 days with compound, CellTiter-Glo, read-out: A549 IC50. An outline of the steps: as §1
In test [3] the test system is KRAS G12C mutant MIA PaCa-2 cells. Nature of the test: Cell proliferation inhibition experiment, 3D spheroid, CellTiter-Glo, MIA PaCa-2. The settings on record: 3D cell model in 384-well spheroid plate, 5 days, CellTiter-Glo, read-out: MIA-PaCa2 IC50. The gist of the method:
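Luminescent ATP read-out (CellTiter-Glo) after 5-day compound treatment of spheroids formed overnight from 200 MIA PaCa-2 cells/well; compounds in 3.16-fold series, 0.1% DMSO final. IC50 derived by four-parameter fit of percent inhibition, normalized to DMSO control and medium blank.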
(ATP-based viability assays read luminescence as a measure of living cells.)

Setting [4] is: Homo sapiens, MIA PaCa-2, 120 h.

Consider `C=CC(=O)N1CCN2C(=O)c3c(-c4ccncc4)nc(-c4c(O)cccc4F)c(Cl)c3OC[C@H]2C1` [Z54], for which the IC50 (usually the concentration that gives 50% inhibition) is 124 nM in test [1] (Homo sapiens, NCI-H358, 120 h); greater than 30000 nM in test [2] (Homo sapiens, A549, 120 h); 169 nM in test [3] (setting [4]).
For the compound `C=CC(=O)N1CCN2C(=O)c3c(-c4c(F)cccc4OC)nc(-c4c(O)cccc4F)c(Cl)c3OC[C@H]2C1` [Z55, (6aR)-8-acryloyl-4-chloro-3-(2-fluoro-6-hydroxyphenyl)-1-(2-fluoro-6-methoxyphenyl)-6,6a,7,8,9,10-hexahydro-12H-pyrazino[2,1-c]pyrido[3,4-f]oxazepin-12-one], the IC50 in test [1] was 134 nM; in test [2], greater than 1000 nM; in test [3], 361 nM.
Consider `C=CC(=O)N1CCN2C(=O)c3c(N4CCN(C)CC45CC5)nc(-c4c(O)cccc4F)c(Cl)c3OC[C@H]2C1` [Z57, (6aR)-8-acryloyl-4-chloro-3-(2-fluoro-6-hydroxyphenyl)-1-(7-methyl-4,7-diazaspiro[2.5]octan-4-yl)-6,6a,7,8,9,10-hexahydro-12H-pyrazino[2,1-c]pyrido[3,4-f][1,4]oxazepin-12-one], for which the IC50 is 134 nM in test [1] (Homo sapiens, NCI-H358, 120 h); greater than 30000 nM in test [2] (Homo sapiens, A549, 120 h); 118 nM in test [3] (setting [4]).
For `C=CC(=O)N1CCN2C(=O)c3c(N4CCCC45CCOC5)nc(-c4c(O)cccc4F)c(Cl)c3OC[C@H]2C1` (stereo partly drawn) [Z58, (6aR)-8-acryloyl-4-chloro-3-(2-fluoro-6-hydroxyphenyl)-1-(7-oxa-1-azaspiro[4.4]nonan-1-yl)-6,6a,7,8,9,10-hexahydro-12H-pyrazino[2,1-c]pyrido[3,4-f][1,4]oxazepin-12-one], in that order: 145 nM, greater than 5000 nM and 237 nM.
Regarding `C=CC(=O)N1CCN2C(=O)c3c(N4CCC5(CCOC5)C4)nc(-c4c(O)cccc4F)c(Cl)c3OC[C@H]2C1` (stereo partly drawn) [Z59, (6aR)-8-acryloyl-4-chloro-3-(2-fluoro-6-hydroxyphenyl)-1-(2-oxa-7-azaspiro[4.4]nonan-7-yl)-6,6a,7,8,9,10-hexahydro-12H-pyrazino[2,1-c]pyrido[3,4-f][1,4]oxazepin-12-(6aH)-one], the IC50 in test [1] was 19 nM; in test [2], greater than 30000 nM; in test [3] it was 27 nM.
With `C=CC(=O)N1CCN2C(=O)c3c(N4CC5CN(C)CC5C4)nc(-c4c(O)cccc4F)c(Cl)c3OC[C@H]2C1` (stereo partly drawn) [Z60, (6aR)-8-acryloyl-4-chloro-3-(2-fluoro-6-hydroxyphenyl)-1-(5-methylhexahydropyrrolo[3,4-c]pyrrol-2 (1H)-yl)-6,6a,7,8,9,10-hexahydro-12H-pyrazino[2,1-c]pyrido[3,4-f][1,4]oxazepin-12-one], the half-maximal inhibitory concentration (IC50) in test [1] (Homo sapiens, NCI-H358, 120 h) was 125 nM; in test [2] (Homo sapiens, A549, 120 h) it was greater than 30000 nM; in test [3] (setting [4]) it was 94 nM.
For `C=CC(=O)N1CCN2C(=O)c3c(N4C[C@H]5CC[C@@H](C4)O5)nc(-c4c(O)cccc4F)c(Cl)c3OC[C@H]2C1` [Z62, (6aR)-8-acryloyl-4-chloro-1-((1R,5S)-8-oxa-3-azabicyclo[3.2.1]octan-3-yl)-3-(2-fluoro-6-hydroxyphenyl)-6,6a,7,8,9,10-hexahydro-12H-pyrazino[2,1-c]pyrido[3,4-f][1,4]oxazepin-12-one], in that order: 23 nM, greater than 10000 nM and 29 nM.
For `C=CC(=O)N1CCN2C(=O)c3c(O[C@@H]4CCN(C)C4)nc(-c4c(O)cccc4F)c(Cl)c3OC[C@H]2C1` [Z64, (6aR)-8-acryloyl-4-chloro-3-(2-fluoro-6-hydroxyphenyl)-1-(((R)-1-methylpyrrolidin-3-yl)oxy)-6,6a,7,8,9,10-hexahydro-12H-pyrazino[2,1-c]pyrido[3,4-f][1,4]oxazepin-12-one], in that order: 287 nM, greater than 30000 nM and 268 nM.

The values above are taken from patent publication US20230203060A1 (GENFLEET THERAPEUTICS (SHANGHAI) INC., priority 2020, published 2023).
